From article PMC3309038 (Bioorganic & medicinal chemistry letters, 2012)

Experiments:
[1] = Microsomal stability assay, human liver microsomes; assay type: in vitro ADME; conditions: pH 7.4
[2] = in vitro; assay type: in vitro ADME; conditions: rat, microsomes, pH 7.4
[3] = test system: TZM-bl cells; conditions: read-out: CC50, cytotoxicity to 50% of cells, published previously; cited from earlier work
[4] = test system: wild-type HIV-1 NL4-3; assay: Anti-HIV activity against wild-type HIV-1 NL4-3 infection of TZM-bl cells; assay type: cell-based; conditions: HIV-1 NL4-3 wild-type

SMILES | microsomal CLint at 1 μM [1] | microsomal CLint at 1 μM [2] | CC50 [3] | Selectivity index (SI), ratio of CC50/EC50 [4]
Cc1cc(/C=C/C#N)cc(C)c1Oc1cc(Nc2ccc(C#N)cc2)c(N)cc1[N+](=O)[O-] [Compound 3] | 150 µL/min/mg | 50 µL/min/mg | > 47.1 µM | –
COC(=O)c1cc(N)c(Nc2ccc(C#N)cc2)cc1Oc1c(C)cc(/C=C/C#N)cc1C [Compound 9a] | – | – | – | >8465
Cc1cc(/C=C/C#N)cc(C)c1Nc1ccnc(Nc2ccc(C#N)cc2)n1 [Compound 2, rilpivirine] | 200 µL/min/mg | 57 µL/min/mg | – | –

Further lines, with some results ahead:

microsomal CLint at 1 μM [1] | microsomal CLint at 1 μM [2] | SMILES | CC50 [3] | Selectivity index (SI), ratio of CC50/EC50 [4]
230 µL/min/mg | – | Cc1cc(/C=C/C#N)cc(C)c1Oc1cc(Nc2ccc(C#N)cc2)c(N)cc1CO [Compound 9e] | – | –
200 µL/min/mg | 57 µL/min/mg | Cc1cc(/C=C/C#N)cc(C)c1Oc1cc(Nc2ccc(C#N)cc2)c(N)cc1C(N)=O [Compound 9c] | – | –
